# pIC50: −log10 of the molar value. Where a SMILES comes first, the peptide text is derived from it. Bridges are numbered along the chain shown (N, C = ends). [ ]: non-standard residue; d: D form. 2Nal = N[C@@H](Cc1ccc2ccccc2c1)C(=O)O; Cba = N[C@@H](CC1CCC1)C(=O)O; S5 = C=CCCC[C@](C)(N)C(=O)O
# System: Colo320DM
# Test: Colo320DM cell viability
# Format: cell-based, human
# Source text: In some embodiments, a polypeptide described herein inhibits binding of BLC9 to β-catenin when assessed in a cell-viability assay. In some embodiments, the cell-viability assay is a CellTiterGlo luminescent assay, wherein the viability of cells is quantitatively measured. Various cell lines, transformed cell lines or primary cells derived from a healthy subject or subject suffering from a disease can be used in this assay.
row,pIC50,SMILES
1,5.28,"CC[C@H](C)[C@@H]1NC(=O)[C@@](C)(NC(=O)[C@H](CCCNC(=N)N)NC(=O)[C@H](CC(C)C)NC(=O)[C@@H](NC(=O)[C@H](CCC(N)=O)NC(=O)[C@H](CC(C)C)NC(=O)[C@H](CO)NC(=O)[C@H](CCCNC(=N)N)NC(=O)[C@H](CCC(=O)O)NC(=O)[C@H](CCCNC(=N)N)NC(=O)[C@H](Cc2c[nH]cn2)NC(C)=O)[C@@H](C)O)CCCC=CCCC[C@@](C)(C(=O)N[C@@H](CC(C)C)C(=O)N[C@@H](Cc2ccc3ccccc3c2)C(N)=O)NC(=O)[C@H](CCCNC(=N)N)NC(=O)[C@H](CCC(N)=O)NC1=O [SEQ ID NO: 6, HRERSLQTLRXIQRXL(2-Nal)] (Ac-HRERSLQTLR[S5]IQR[S5]L[2Nal]-NH2; staple 11-15)"
2,5.04,"CC[C@H](C)[C@@H]1NC(=O)[C@@](C)(NC(=O)[C@H](CCCNC(=N)N)NC(=O)[C@H](CC(C)C)NC(=O)[C@@H](NC(=O)[C@H](CCC(N)=O)NC(=O)[C@H](CC(C)C)NC(=O)[C@H](CO)NC(=O)[C@H](CCCNC(=N)N)NC(=O)[C@H](CCC(=O)O)NC(=O)[C@H](CCCNC(=N)N)NC(=O)[C@H](Cc2c[nH]cn2)NC(=O)[C@H](CCC(=O)O)NC(C)=O)[C@@H](C)O)CCCC=CCCC[C@@](C)(C(=O)N[C@@H](CC(C)C)C(=O)N[C@@H](Cc2ccc3ccccc3c2)C(N)=O)NC(=O)[C@H](CCCNC(=N)N)NC(=O)[C@H](CCC(N)=O)NC1=O [SEQ ID NO: 7, EHRERSLQTLRXIQRXL(2-Nal)] (Ac-EHRERSLQTLR[S5]IQR[S5]L[2Nal]-NH2; staple 12-16)"
3,5.20,"CC[C@H](C)[C@@H]1NC(=O)[C@@](C)(NC(=O)[C@H](CCCNC(=N)N)NC(=O)[C@H](CC(C)C)NC(=O)[C@@H](NC(=O)[C@H](CCC(N)=O)NC(=O)[C@H](CC(C)C)NC(=O)[C@H](CO)NC(=O)[C@H](CCCNC(=N)N)NC(=O)[C@H](CCC(=O)O)NC(=O)[C@H](CCCNC(=N)N)NC(=O)[C@H](Cc2c[nH]cn2)NC(=O)[C@H](CCC(=O)O)NC(=O)[C@H](CC(C)C)NC(=O)[C@H](CCC(N)=O)NC(C)=O)[C@@H](C)O)CCCC=CCCC[C@@](C)(C(=O)N[C@@H](CC(C)C)C(=O)N[C@@H](Cc2ccc3ccccc3c2)C(N)=O)NC(=O)[C@H](CCCNC(=N)N)NC(=O)[C@H](CCC(N)=O)NC1=O [SEQ ID NO: 8, QLEHRERSLQTLRXIQRXL(2-Nal)] (Ac-QLEHRERSLQTLR[S5]IQR[S5]L[2Nal]-NH2; staple 14-18)"
4,5.72,"CC[C@H](C)[C@@H]1NC(=O)[C@@](C)(NC(=O)[C@H](CCCNC(=N)N)NC(=O)[C@H](CC(C)C)NC(=O)[C@@H](NC(=O)[C@H](CCC(N)=O)NC(=O)[C@H](CC(C)C)NC(=O)[C@H](CO)NC(=O)[C@H](CCCNC(=N)N)NC(=O)[C@H](CCC(=O)O)NC(=O)[C@H](CCCNC(=N)N)NC(=O)[C@H](Cc2c[nH]cn2)NC(=O)[C@H](CCC(=O)O)NC(C)=O)[C@@H](C)O)CCCC=CCCC[C@@](C)(C(=O)N[C@@H](CC2CCC2)C(=O)N[C@@H](Cc2ccc3ccccc3c2)C(N)=O)NC(=O)[C@H](CCCNC(=N)N)NC(=O)[C@H](CCC(N)=O)NC1=O [SEQ ID NO: 9, EHRERSLQTLRXIQRX(CBA)(2-Nal)] (Ac-EHRERSLQTLR[S5]IQR[S5][Cba][2Nal]-NH2; staple 12-16)"
5,5.82,"CC[C@H](C)[C@@H]1NC(=O)[C@@](C)(NC(=O)[C@H](CCCNC(=N)N)NC(=O)[C@H](CC(C)C)NC(=O)[C@@H](NC(=O)[C@H](CCC(N)=O)NC(=O)[C@H](CC(C)C)NC(=O)[C@H](CO)NC(=O)[C@H](CCCNC(=N)N)NC(=O)[C@H](CCC(=O)O)NC(=O)[C@H](CCC(N)=O)NC(=O)[C@H](Cc2c[nH]cn2)NC(C)=O)[C@@H](C)O)CCCC=CCCC[C@@](C)(C(=O)N[C@@H](CC(C)C)C(=O)N[C@@H](Cc2ccc3ccccc3c2)C(N)=O)NC(=O)[C@H](CCCNC(=N)N)NC(=O)[C@H](CCC(N)=O)NC1=O [SEQ ID NO: 11, HQERSLQTLRXIQRXL(2-Nal)] (Ac-HQERSLQTLR[S5]IQR[S5]L[2Nal]-NH2; staple 11-15)"
6,5.79,"CC[C@H](C)[C@@H]1NC(=O)[C@@](C)(NC(=O)[C@H](CCCNC(=N)N)NC(=O)[C@H](CC(C)C)NC(=O)[C@@H](NC(=O)[C@H](CCC(N)=O)NC(=O)[C@H](CC(C)C)NC(=O)[C@H](CO)NC(=O)[C@H](CCCNC(=N)N)NC(=O)[C@H](CCC(=O)O)NC(=O)[C@H](CCCNC(=N)N)NC(C)=O)[C@@H](C)O)CCCC=CCCC[C@@](C)(C(=O)N[C@@H](CC2CCC2)C(=O)N[C@@H](Cc2ccc3ccccc3c2)C(N)=O)NC(=O)[C@H](CCCNC(=N)N)NC(=O)[C@H](CCC(N)=O)NC1=O [SEQ ID NO: 13, RERSLQTLRXIQRX(CBA)(2-Nal)] (Ac-RERSLQTLR[S5]IQR[S5][Cba][2Nal]-NH2; staple 10-14)"
7,5.83,"CC[C@H](C)[C@@H]1NC(=O)[C@@](C)(NC(=O)[C@H](CCCNC(=N)N)NC(=O)[C@H](CC(C)C)NC(=O)[C@@H](NC(=O)[C@H](CCC(N)=O)NC(=O)[C@H](CC(C)C)NC(=O)[C@H](CO)NC(=O)[C@H](CCCNC(=N)N)NC(=O)[C@H](CCC(=O)O)NC(=O)[C@H](CCCNC(=N)N)NC(=O)[C@H](Cc2c[nH]cn2)NC(C)=O)[C@@H](C)O)CCCC=CCCC[C@@](C)(C(=O)N[C@@H](CC2CCC2)C(=O)N[C@@H](Cc2ccc3ccccc3c2)C(N)=O)NC(=O)[C@H](CCCNC(=N)N)NC(=O)[C@H](CCC(N)=O)NC1=O [SEQ ID NO: 14, HRERSLQTLRXIQRX(CBA)(2-Nal)] (Ac-HRERSLQTLR[S5]IQR[S5][Cba][2Nal]-NH2; staple 11-15)"
8,5.49,"CC[C@H](C)[C@@H]1NC(=O)[C@@](C)(NC(=O)[C@H](CCCNC(=N)N)NC(=O)[C@H](CC(C)C)NC(=O)[C@@H](NC(=O)[C@H](CCC(N)=O)NC(=O)[C@H](CC(C)C)NC(=O)[C@H](CO)NC(=O)[C@H](CCCNC(=N)N)NC(=O)[C@H](CCC(=O)O)NC(=O)[C@H](CCCNC(=N)N)NC(=O)[C@H](Cc2c[nH]cn2)NC(C)=O)[C@@H](C)O)CCCC=CCCC[C@@](C)(C(=O)N[C@@H](CC(C)C)C(=O)N[C@@H](Cc2ccc3ccccc3c2)C(N)=O)NC(=O)[C@H](C)NC(=O)[C@H](CCC(N)=O)NC1=O [SEQ ID NO: 28, HRERSLQTLRXIQAXL(2-Nal)] (Ac-HRERSLQTLR[S5]IQA[S5]L[2Nal]-NH2; staple 11-15)"
9,5.57,"CC[C@H](C)[C@@H]1NC(=O)[C@@](C)(NC(=O)[C@H](CCCNC(=N)N)NC(=O)[C@H](CC(C)C)NC(=O)[C@@H](NC(=O)[C@H](CCC(N)=O)NC(=O)[C@H](CC(C)C)NC(=O)[C@H](CO)NC(=O)[C@H](CCCNC(=N)N)NC(=O)[C@H](CCC(=O)O)NC(=O)[C@H](CCCNC(=N)N)NC(=O)[C@H](Cc2c[nH]cn2)NC(C)=O)[C@@H](C)O)CCCC=CCCC[C@@](C)(C(=O)N[C@@H](CC2CCC2)C(=O)N[C@@H](Cc2ccc3ccccc3c2)C(N)=O)NC(=O)[C@H](C)NC(=O)[C@H](CCC(N)=O)NC1=O [SEQ ID NO: 29, HRERSLQTLRXIQAX(CBA)(2-Nal)] (Ac-HRERSLQTLR[S5]IQA[S5][Cba][2Nal]-NH2; staple 11-15)"
10,6.25,"CC[C@H](C)[C@@H]1NC(=O)[C@@](C)(NC(=O)[C@H](CCCNC(=N)N)NC(=O)[C@H](CC(C)C)NC(=O)[C@]2(C)CCCC=CCCC[C@](C)(NC(=O)[C@H](CCC(=O)O)NC(=O)[C@H](CCCNC(=N)N)NC(C)=O)C(=O)N[C@@H](CO)C(=O)N[C@@H](CC(C)C)C(=O)N[C@@H](CCC(N)=O)C(=O)N2)CCCC=CCCC[C@@](C)(C(=O)N[C@@H](CC(C)C)C(=O)N[C@@H](Cc2ccc3ccccc3c2)C(N)=O)NC(=O)[C@H](CCCNC(=N)N)NC(=O)[C@H](CCC(N)=O)NC1=O [SEQ ID NO: 39, REXSLQXLRZIQRZL(2-Nal)] (Ac-RE[S5]SLQ[S5]LR[S5]IQR[S5]L[2Nal]-NH2; staple 3-7, 10-14)"
